{"source": "patent US20250243196A1", "about": "“CITRON KINASE INHIBITORS” (The Cleveland Clinic Foundation, priority 2021, published 2025)", "key": {"[1]": {"target": "TSSK2(h) (Homo sapiens (Human), UniProt Q96PF2)", "test": "KinaseProfiler panel", "format": "biochemical", "set-up": "dose or concentration left out as unconfirmed", "conditions": "activity remaining"}, "[2]": {"target": "DDR2(h) (Homo sapiens (Human), UniProt Q16832)", "test": "KinaseProfiler panel", "format": "biochemical", "set-up": "dose or concentration left out as unconfirmed", "conditions": "activity remaining"}, "[3]": {"target": "IR(h) (Homo sapiens (Human), UniProt P06213)", "test": "KinaseProfiler panel", "format": "biochemical", "set-up": "dose or concentration left out as unconfirmed", "conditions": "activity remaining"}, "[4]": {"target": "PIP5K1a(h) (Homo sapiens (Human), UniProt Q99755)", "test": "KinaseProfiler panel", "format": "biochemical", "set-up": "dose or concentration left out as unconfirmed", "conditions": "activity remaining"}, "[5]": {"target": "Arg(h) (Homo sapiens (Human), UniProt P42684)", "test": "KinaseProfiler panel", "format": "biochemical", "set-up": "dose or concentration left out as unconfirmed", "conditions": "activity remaining"}, "[6]": {"target": "TTBK1(h) (Homo sapiens (Human), UniProt Q5TCY1)", "test": "KinaseProfiler panel", "format": "biochemical", "set-up": "dose or concentration left out as unconfirmed", "conditions": "activity remaining"}, "[7]": {"target": "CDK3/cyclinE(h) (Homo sapiens (Human), UniProt Q00526)", "test": "KinaseProfiler panel", "format": "biochemical", "set-up": "dose or concentration left out as unconfirmed", "conditions": "activity remaining"}, "[8]": {"target": "PKCζ(h) (Homo sapiens (Human), UniProt Q05513)", "test": "KinaseProfiler panel", "format": "biochemical", "set-up": "dose or concentration left out as unconfirmed", "conditions": "activity remaining"}, "[9]": {"target": "IRE1(h) (Homo sapiens (Human), UniProt O75460)", "test": "KinaseProfiler panel", "format": "biochemical", "set-up": "dose or concentration left out as unconfirmed", "conditions": "activity remaining"}, "[10]": {"target": "CK1γ2(h) (Homo sapiens (Human), UniProt P78368)", "test": "KinaseProfiler panel", "format": "biochemical", "set-up": "dose or concentration left out as unconfirmed", "conditions": "activity remaining"}, "[11]": {"target": "GRK6(h) (Homo sapiens (Human), UniProt P43250)", "sequence (P43250 whole entry)": "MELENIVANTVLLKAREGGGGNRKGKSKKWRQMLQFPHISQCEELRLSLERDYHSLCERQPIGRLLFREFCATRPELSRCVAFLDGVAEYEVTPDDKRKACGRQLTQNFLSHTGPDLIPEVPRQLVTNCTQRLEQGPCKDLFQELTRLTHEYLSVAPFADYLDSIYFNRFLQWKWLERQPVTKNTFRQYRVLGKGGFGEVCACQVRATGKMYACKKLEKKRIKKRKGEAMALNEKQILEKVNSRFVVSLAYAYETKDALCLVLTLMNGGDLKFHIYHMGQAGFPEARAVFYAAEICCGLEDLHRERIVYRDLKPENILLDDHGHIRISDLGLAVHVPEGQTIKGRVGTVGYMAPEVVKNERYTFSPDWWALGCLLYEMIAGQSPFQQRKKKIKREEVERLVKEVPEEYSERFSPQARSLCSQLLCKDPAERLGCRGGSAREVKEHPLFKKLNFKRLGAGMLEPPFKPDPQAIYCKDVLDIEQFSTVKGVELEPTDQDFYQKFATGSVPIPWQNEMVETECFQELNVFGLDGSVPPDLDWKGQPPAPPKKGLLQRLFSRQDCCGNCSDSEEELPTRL", "test": "KinaseProfiler panel", "format": "biochemical", "set-up": "dose or concentration left out as unconfirmed", "conditions": "activity remaining"}, "[12]": {"target": "MLK3(h) (Homo sapiens (Human), UniProt Q16584)", "sequence (Q16584 whole entry)": "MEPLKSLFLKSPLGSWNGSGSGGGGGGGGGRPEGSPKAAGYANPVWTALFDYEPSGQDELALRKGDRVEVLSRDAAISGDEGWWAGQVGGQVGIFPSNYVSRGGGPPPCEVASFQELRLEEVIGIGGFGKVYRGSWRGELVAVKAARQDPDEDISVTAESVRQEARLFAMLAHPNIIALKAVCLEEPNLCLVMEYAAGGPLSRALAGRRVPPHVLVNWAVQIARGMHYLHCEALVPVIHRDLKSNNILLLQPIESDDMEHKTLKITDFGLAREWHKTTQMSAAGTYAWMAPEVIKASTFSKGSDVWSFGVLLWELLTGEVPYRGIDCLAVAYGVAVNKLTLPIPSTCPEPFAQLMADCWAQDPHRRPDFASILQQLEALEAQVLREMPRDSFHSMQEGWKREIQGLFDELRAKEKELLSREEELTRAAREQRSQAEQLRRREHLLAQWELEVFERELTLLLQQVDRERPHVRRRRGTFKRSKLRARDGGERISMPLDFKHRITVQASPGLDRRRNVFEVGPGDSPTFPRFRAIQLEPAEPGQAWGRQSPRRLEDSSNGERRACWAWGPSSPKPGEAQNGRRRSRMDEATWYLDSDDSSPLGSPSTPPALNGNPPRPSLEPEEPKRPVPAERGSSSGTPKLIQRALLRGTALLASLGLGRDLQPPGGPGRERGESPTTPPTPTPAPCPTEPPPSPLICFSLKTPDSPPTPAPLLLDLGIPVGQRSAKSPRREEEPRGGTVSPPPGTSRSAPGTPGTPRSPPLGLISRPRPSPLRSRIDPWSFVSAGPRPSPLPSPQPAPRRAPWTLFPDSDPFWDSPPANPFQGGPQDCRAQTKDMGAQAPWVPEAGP", "test": "KinaseProfiler panel", "format": "biochemical", "set-up": "dose or concentration left out as unconfirmed", "conditions": "activity remaining"}, "[13]": {"target": "STK32C(h) (Homo sapiens (Human), UniProt Q86UX6)", "test": "KinaseProfiler panel", "format": "biochemical", "conditions": "activity remaining"}, "[14]": {"target": "PKCη(h) (Homo sapiens (Human), UniProt P24723)", "test": "KinaseProfiler panel", "format": "biochemical", "set-up": "dose or concentration left out as unconfirmed", "conditions": "activity remaining"}, "[15]": {"target": "EGFR(h) (Homo sapiens (Human), UniProt P00533)", "test": "KinaseProfiler panel", "format": "biochemical", "set-up": "dose or concentration left out as unconfirmed", "conditions": "activity remaining"}, "[16]": {"target": "ErbB4(h) (Homo sapiens (Human), UniProt Q15303)", "test": "KinaseProfiler panel", "format": "biochemical", "set-up": "dose or concentration left out as unconfirmed", "conditions": "activity remaining"}, "[17]": {"target": "PKCμ(h) (Homo sapiens (Human), UniProt Q15139)", "test": "KinaseProfiler panel", "format": "biochemical", "set-up": "dose or concentration left out as unconfirmed", "conditions": "activity remaining"}, "[18]": {"target": "EphA3(h) (Homo sapiens (Human), UniProt P29320)", "sequence (P29320 21-983)": "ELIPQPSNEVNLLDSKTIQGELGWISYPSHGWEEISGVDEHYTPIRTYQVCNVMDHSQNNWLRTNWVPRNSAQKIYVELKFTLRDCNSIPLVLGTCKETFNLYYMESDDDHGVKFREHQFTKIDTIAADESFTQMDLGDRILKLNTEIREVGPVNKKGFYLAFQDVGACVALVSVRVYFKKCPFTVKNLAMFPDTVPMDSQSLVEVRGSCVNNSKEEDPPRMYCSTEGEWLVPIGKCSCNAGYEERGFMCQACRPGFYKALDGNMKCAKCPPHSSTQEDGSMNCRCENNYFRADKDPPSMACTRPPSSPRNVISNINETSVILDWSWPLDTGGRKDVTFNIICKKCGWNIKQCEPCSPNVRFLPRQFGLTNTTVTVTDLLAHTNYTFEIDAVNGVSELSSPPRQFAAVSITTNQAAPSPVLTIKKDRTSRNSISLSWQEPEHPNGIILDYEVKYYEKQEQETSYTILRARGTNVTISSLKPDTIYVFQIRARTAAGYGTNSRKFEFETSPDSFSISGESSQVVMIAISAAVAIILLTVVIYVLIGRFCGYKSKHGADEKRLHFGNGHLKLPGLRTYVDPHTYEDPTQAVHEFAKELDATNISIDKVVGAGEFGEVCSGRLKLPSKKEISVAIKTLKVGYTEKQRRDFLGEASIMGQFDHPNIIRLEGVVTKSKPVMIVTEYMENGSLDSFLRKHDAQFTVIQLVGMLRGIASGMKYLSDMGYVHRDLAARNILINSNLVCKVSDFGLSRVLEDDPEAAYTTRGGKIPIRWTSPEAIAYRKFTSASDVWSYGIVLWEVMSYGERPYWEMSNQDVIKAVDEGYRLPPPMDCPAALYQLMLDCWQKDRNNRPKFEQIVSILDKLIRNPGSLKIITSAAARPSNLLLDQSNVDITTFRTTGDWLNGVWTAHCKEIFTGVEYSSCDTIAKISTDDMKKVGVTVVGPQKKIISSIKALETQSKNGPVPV", "test": "KinaseProfiler panel", "format": "biochemical", "set-up": "dose or concentration left out as unconfirmed", "conditions": "activity remaining"}, "[19]": {"target": "BrSK1(h) (Homo sapiens (Human), UniProt Q8TDC3)", "test": "KinaseProfiler panel", "format": "biochemical", "set-up": "dose or concentration left out as unconfirmed", "conditions": "activity remaining"}, "[20]": {"target": "MARK1(h) (Homo sapiens (Human), UniProt Q9P0L2)", "test": "KinaseProfiler panel", "format": "biochemical", "set-up": "dose or concentration left out as unconfirmed", "conditions": "activity remaining"}, "[21]": {"target": "DNA-PK(h) (Homo sapiens (Human), UniProt P78527)", "test": "KinaseProfiler panel", "format": "biochemical", "set-up": "dose or concentration left out as unconfirmed", "conditions": "activity remaining"}, "[22]": {"target": "CaMKIV(h) (Homo sapiens (Human), UniProt Q16566)", "sequence (Q16566 whole entry)": "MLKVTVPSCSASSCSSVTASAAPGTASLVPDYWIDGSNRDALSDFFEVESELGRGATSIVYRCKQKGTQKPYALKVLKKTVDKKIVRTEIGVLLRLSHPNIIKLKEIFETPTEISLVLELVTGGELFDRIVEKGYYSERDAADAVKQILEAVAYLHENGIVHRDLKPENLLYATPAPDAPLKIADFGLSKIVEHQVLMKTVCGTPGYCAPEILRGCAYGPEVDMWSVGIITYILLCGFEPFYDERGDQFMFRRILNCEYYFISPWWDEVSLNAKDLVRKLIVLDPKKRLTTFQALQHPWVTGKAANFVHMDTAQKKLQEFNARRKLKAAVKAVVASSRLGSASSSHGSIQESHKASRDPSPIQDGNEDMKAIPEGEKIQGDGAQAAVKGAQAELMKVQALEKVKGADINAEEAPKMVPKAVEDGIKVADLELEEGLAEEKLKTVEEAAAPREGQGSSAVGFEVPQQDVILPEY", "test": "KinaseProfiler panel", "format": "biochemical", "set-up": "dose or concentration left out as unconfirmed", "conditions": "activity remaining"}, "[23]": {"target": "NanoLuc-CITK (full-length human CITK) (Homo sapiens (Human), UniProt O14578)", "sequence (O14578 other isoform, or with tags, fused parts or gaps)": "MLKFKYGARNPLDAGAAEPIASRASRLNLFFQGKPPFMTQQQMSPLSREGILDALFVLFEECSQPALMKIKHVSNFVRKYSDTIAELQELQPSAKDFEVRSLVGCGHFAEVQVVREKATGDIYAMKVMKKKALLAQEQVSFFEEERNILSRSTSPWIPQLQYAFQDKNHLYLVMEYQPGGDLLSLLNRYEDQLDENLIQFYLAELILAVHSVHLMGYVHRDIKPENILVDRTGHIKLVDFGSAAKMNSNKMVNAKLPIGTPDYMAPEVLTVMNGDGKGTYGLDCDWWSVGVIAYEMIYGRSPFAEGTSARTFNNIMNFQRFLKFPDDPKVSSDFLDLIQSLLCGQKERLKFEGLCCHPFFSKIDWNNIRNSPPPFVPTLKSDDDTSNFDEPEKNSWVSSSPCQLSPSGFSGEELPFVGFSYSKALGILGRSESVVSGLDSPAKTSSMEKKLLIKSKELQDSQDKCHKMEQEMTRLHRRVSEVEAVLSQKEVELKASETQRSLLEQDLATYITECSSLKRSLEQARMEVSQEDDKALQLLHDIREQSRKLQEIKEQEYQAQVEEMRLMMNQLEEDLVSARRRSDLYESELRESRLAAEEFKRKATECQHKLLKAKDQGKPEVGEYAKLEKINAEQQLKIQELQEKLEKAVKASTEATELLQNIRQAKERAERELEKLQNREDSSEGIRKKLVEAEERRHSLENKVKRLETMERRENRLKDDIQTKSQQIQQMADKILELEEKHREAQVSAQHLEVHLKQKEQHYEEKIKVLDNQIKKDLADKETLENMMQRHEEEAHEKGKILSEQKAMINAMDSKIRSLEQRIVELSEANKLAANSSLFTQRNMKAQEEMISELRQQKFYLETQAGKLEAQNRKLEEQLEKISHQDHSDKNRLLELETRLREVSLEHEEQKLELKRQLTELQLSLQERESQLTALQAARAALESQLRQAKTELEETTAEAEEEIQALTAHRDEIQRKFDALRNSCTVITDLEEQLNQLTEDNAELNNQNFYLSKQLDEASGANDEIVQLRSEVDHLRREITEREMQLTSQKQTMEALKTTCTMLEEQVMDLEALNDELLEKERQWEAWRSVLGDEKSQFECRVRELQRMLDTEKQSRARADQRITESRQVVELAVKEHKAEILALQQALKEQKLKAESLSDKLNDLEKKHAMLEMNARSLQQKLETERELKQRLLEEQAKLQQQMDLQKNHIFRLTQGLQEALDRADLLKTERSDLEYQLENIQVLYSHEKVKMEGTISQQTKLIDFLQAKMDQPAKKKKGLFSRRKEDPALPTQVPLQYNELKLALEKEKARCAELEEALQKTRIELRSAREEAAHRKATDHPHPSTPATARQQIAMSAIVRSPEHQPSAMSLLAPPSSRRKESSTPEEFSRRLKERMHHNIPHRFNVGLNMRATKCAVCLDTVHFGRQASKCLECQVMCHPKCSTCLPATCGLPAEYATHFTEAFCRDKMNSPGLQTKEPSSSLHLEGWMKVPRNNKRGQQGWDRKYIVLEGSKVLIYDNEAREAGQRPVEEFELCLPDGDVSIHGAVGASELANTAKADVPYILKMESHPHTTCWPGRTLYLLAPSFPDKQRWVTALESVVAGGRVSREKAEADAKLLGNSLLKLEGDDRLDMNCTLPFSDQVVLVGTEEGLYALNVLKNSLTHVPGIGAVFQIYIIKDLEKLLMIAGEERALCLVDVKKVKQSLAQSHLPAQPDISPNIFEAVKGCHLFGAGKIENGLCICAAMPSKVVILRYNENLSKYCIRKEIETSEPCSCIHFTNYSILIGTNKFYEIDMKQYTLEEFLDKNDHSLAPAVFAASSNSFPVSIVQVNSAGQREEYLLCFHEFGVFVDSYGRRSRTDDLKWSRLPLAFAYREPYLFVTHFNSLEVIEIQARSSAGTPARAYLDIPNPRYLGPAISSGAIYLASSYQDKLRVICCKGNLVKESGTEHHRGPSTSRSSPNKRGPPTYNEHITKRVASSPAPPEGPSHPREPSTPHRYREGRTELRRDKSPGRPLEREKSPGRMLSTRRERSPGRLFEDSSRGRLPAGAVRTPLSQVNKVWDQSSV", "test": "NanoBRET intracellular target engagement assay", "format": "cell-based", "description": "In-cell Kd values were evaluated with a NanoBRET Target Engagement Assay essentially as recommended by the manufacturer (Promega Corporation—for details see https://www.promega.com/resources/technologies/nanoluc-luciferase-enzyme/cellular-target-engagement/).\nHEK293T cells were transfected with 5.0 μg/mL sterile NanoLuc-CITK DNA, 5.0 μg/mL Transfection Carrier DNA, and 30 μL/mL FugeneHD® (Promega) in Opti-Mem™ (Thermo) media at a cell density of 250,000 cells/mL. […] 5 μL of the 25× Tracer K10 solution was added to each well. Next, designated inhibitors were prepared from powder as 10 mM DMSO stocks and then further diluted to 10× the final assay concentration in Opti-Mem™. 12-pt dose-response curves were prepared by 3×-serial dilution. […] A 3× Complete Substrate+Inhibitor solution, containing 6 mL of Opti-Mem™, 36 μL of NanoBRET Nano-Glo Substrate, and 12 μL Extracellular NanoLuc Inhibitor was freshly prepared for each plate. 50 μL of the 3× Complete Substrate+Inhibitor solution was added to all wells and the plate was incubated for 2 min with 500 RPM shaking. The bottom of the plates were covered with black plate seals and then measured on a Cytation 5 plate reader (Biotek) with a NanoBRET Filter Cube (Biotek; 450/50 emission & 610LP emission). Background corrected BRET ratios (in mBU) were calculated in Excel and IC50's were subsequently extracted using four-parameter non-linear regression in GraphPad Prism 8."}, "[24]": {"target": "STK32B(h) (Homo sapiens (Human), UniProt Q9NY57)", "test": "KinaseProfiler panel", "format": "biochemical", "set-up": "dose or concentration left out as unconfirmed", "conditions": "activity remaining"}, "[25]": {"target": "CK2(h) (Homo sapiens (Human), UniProt P68400)", "test": "KinaseProfiler panel", "format": "biochemical", "set-up": "dose or concentration left out as unconfirmed", "conditions": "activity remaining"}, "[26]": {"target": "LIMK1(h) (Homo sapiens (Human), UniProt P53667)", "test": "KinaseProfiler panel", "format": "biochemical", "set-up": "dose or concentration left out as unconfirmed", "conditions": "activity remaining"}}, "data": [{"smiles": "Cc1cc2c(-c3ccc(NC(=O)[C@H](N)CC(C)(C)C)cc3C)ccnc2[nH]1", "note": "[Compound F-90, (2R)-2-Amino-4,4-dimethyl-N-[3-methyl-4-(2-methyl-1H-pyrrolo[2,3-b]pyridin-4-yl)phenyl]pentanamide]", "values": [{"measurement": "% Activity", "setting": "[1]", "value": 113, "unit": "%"}, {"measurement": "% Activity", "setting": "[2]", "value": 85, "unit": "%"}, {"measurement": "% Activity", "setting": "[3]", "value": 94, "unit": "%"}, {"measurement": "% Activity", "setting": "[4]", "value": 103, "unit": "%"}, {"measurement": "% Activity", "setting": "[5]", "value": 72, "unit": "%"}, {"measurement": "% Activity", "setting": "[6]", "value": 96, "unit": "%"}, {"measurement": "% Activity", "setting": "[7]", "value": 102, "unit": "%"}, {"measurement": "% Activity", "setting": "[8]", "value": 88, "unit": "%"}, {"measurement": "% Activity", "setting": "[9]", "value": 99, "unit": "%"}, {"measurement": "% Activity", "setting": "[10]", "value": 97, "unit": "%"}, {"measurement": "% Activity", "setting": "[11]", "value": 95, "unit": "%"}, {"measurement": "% Activity", "setting": "[12]", "value": 91, "unit": "%"}, {"measurement": "% Activity", "setting": "[13]", "value": 85, "unit": "%"}, {"measurement": "% Activity", "setting": "[14]", "value": 118, "unit": "%"}, {"measurement": "% Activity", "setting": "[15]", "value": 107, "unit": "%"}, {"measurement": "% Activity", "setting": "[16]", "value": 94, "unit": "%"}, {"measurement": "% Activity", "setting": "[17]", "value": 109, "unit": "%"}, {"measurement": "% Activity", "setting": "[18]", "value": 79, "unit": "%"}, {"measurement": "% Activity", "setting": "[19]", "value": 96, "unit": "%"}, {"measurement": "% Activity", "setting": "[20]", "value": 106, "unit": "%"}, {"measurement": "% Activity", "setting": "[21]", "value": 107, "unit": "%"}, {"measurement": "% Activity", "setting": "[22]", "value": 99, "unit": "%"}, {"measurement": "Kd", "setting": "[23]", "value": 9.9, "unit": "nM"}, {"measurement": "IC50", "setting": "[23]; HEK293T cells transfected with NanoLuc-CITK, Tracer K10 1 μM, 2 hours", "value": 53, "unit": "nM"}, {"measurement": "% Activity", "setting": "[24]", "value": 115, "unit": "%"}, {"measurement": "% Activity", "setting": "[25]", "value": 112, "unit": "%"}, {"measurement": "% Activity", "setting": "[26]", "value": 70, "unit": "%"}]}]}
